Numbering of substitutions follows the chain as printed. Where two headings read alike, the source gives them in different places. Marks after values point to notes of the source that are not given here. Residues, ends and D or L forms follow the SMILES beside them.
Columns and labels:
[1] = test system: human panels; conditions: molar basis, cited from earlier work
[2] = biological target: T1, human TAS1R2/TAS1R3 receptor (Homo sapiens, UniProt Q7RTX0+Q8TE23); conditions: cellular assays, cited from earlier work
T1 sequence (Q8TE23 20-839): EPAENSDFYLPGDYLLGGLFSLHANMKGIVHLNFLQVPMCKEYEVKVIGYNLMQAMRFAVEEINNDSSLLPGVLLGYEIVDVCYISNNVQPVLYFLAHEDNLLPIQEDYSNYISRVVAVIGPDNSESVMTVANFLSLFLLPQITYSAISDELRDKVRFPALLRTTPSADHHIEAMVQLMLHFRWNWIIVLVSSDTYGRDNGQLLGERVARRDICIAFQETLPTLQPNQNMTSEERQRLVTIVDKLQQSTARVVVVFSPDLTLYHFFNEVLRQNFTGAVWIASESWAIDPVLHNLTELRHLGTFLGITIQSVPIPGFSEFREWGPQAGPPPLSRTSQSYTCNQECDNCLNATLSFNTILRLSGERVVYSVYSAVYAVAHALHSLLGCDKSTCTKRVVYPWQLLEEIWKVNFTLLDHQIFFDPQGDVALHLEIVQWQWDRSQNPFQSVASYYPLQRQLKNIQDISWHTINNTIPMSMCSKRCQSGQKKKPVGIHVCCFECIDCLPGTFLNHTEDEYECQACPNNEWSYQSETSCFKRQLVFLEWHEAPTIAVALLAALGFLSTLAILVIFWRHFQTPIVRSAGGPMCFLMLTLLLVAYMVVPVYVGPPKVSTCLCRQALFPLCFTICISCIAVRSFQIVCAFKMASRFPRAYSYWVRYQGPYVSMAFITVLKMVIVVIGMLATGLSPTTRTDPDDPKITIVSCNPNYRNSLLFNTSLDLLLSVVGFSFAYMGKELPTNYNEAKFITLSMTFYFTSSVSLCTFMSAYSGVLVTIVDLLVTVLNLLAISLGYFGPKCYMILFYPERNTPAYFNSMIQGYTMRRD
T1 sequence (Q7RTX0 21-852): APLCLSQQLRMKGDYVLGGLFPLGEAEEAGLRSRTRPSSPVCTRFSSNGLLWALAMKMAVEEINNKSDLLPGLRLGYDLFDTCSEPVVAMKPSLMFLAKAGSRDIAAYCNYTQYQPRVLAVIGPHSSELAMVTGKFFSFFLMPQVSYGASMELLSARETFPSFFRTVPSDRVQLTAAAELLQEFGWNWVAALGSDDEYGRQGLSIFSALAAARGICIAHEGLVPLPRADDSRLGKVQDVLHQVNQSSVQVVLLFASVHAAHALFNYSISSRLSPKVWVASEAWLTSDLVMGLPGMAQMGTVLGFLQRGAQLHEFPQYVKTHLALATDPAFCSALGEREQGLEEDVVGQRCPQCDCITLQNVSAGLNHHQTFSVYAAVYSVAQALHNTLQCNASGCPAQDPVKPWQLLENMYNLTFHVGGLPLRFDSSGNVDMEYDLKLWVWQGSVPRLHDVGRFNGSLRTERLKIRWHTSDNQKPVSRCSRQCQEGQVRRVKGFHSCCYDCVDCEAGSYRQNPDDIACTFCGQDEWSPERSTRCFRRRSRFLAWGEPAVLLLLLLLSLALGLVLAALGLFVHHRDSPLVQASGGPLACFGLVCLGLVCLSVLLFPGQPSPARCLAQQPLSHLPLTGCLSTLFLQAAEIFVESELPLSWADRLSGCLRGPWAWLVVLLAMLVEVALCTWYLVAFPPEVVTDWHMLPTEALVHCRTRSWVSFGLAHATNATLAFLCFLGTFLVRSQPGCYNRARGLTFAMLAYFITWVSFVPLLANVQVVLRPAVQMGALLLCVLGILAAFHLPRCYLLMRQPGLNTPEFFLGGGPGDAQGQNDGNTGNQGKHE

[3] = test system: full-length hTAS1R2/hTAS1R3 receptor D278A; set-up: method as in PMID 22536376; conditions: cellular-based assay; cited from earlier work
[4] = biological target: T2, hTAS1R2-VFT (Homo sapiens, UniProt Q8TE23); test: Intrinsic tryptophan fluorescence ligand binding, hTAS1R2-VFT
T2 construct: followed by hTAS1R2-VFT (Ala22-Ser493) and another His6-tag at the C-terminus; His6 (thrombin-cleavable) (N); made in house
T2 sequence (Q8TE23 22-493): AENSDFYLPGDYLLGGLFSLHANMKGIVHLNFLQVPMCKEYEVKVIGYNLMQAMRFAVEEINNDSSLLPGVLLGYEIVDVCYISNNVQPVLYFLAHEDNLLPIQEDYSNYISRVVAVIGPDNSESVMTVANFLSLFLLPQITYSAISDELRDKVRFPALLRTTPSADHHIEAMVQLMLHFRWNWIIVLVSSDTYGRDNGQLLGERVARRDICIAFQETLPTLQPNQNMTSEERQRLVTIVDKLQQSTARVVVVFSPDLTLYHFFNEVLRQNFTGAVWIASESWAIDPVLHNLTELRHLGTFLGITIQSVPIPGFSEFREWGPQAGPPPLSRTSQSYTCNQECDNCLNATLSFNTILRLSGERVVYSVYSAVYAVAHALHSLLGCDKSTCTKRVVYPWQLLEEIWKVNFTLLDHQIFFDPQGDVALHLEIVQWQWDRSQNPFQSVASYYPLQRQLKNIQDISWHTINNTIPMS
Excerpt: Therefore, we tested the binding affinity of hTAS1R2-VFT using an intrinsic tryptophan fluorescence assay. This approach allows one to measure protein–ligand interactions by measuring the fluorescence emitted by tryptophan residues upon the titration of sweet ligands. This technique is very sensitive to changes in the local environment of fluorescent amino acid residues within a protein and has been used to measure protein–ligand binding interactions with mouse, human and cat TAS1R-VFTs. For this purpose, we determined the concentration response relationships for the intrinsic tryptophan fluorescence of hTAS1R2-VFT upon the addition of various sweet compounds.
Figure 4 Binding properties of hTAS1R2-VFT assessed by intrinsic tryptophan fluorescence. Titration curves of hTAS1R2-VFT were generated with natural sugars (pink circles) or sweeteners (blue circles). Circles show experimental data, while the solid lines are the computed binding curves; excitation and emission wavelengths were 295 nm and 340 nm, respectively; hTAS1R2-VFT concentration, 0.5 µM. Data points correspond to the means ± SEMs of at least 12 independent replicates of at least three independently refolded protein samples, except for glucose, 6 independent replicates over three independently refolded protein samples.
All measurements were conducted at 20 °C using a Cary Eclipse spectrofluorimeter (Agilent Technologies, Santa Clara, CA, USA) equipped with a Peltier temperature control unit with a 5 nm bandwidth for emission and excitation. Ligand binding experiments with 0.5 µM hTAS1R2-VFTs were performed in buffer composed of 50 mM Tris-HCl pH 8, 150 mM NaCl, 0.5 mM DDM and 1 mM DTT. The intrinsic fluorescence of hTAS1R2-VFTs was measured at an excitation wavelength of 295 nm, and emission spectra were recorded from 320 to 380 nm. Fluorescence emission values were collected at 340 nm wavelength in the presence and absence of sweet ligands. A range of ligand concentrations were freshly prepared in 50 mM Tris-HCl pH 8.0. For titration experiments, successive 0.4 µL aliquots of sweeteners were added to 400 µL of hTAS1R2-VFT solution. Fluorescence measurements were corrected for bleaching, dilution and nonspecific buffer quenching. The dissociation constants (Kd) were calculated from a plot of the ratio between the fluorescence intensity variation and the maximum fluorescence intensity variation (ΔF/ΔFmax) versus the concentration of the total ligand. Assuming that the binding of hTAS1R2-VFT to sweet compounds is described by a one-site binding model, the Kd values of ligand–receptor interactions were determined with a standard nonlinear regression method using SigmaPlot 12.5 software (Systat Software, Inc., San Jose, CA, USA) as previously described. For each ligand, the experiment was repeated on at least twelve cells over at least three different batches of refolded hTAS1R2-VFT.

[5] = biological target: T3, hTAS1R2-VFT-D278A (Homo sapiens, UniProt Q8TE23, D278A); test: Intrinsic tryptophan fluorescence ligand binding, mutant D278A; conditions: Table 2, read-out: Apparent Kd hTAS1R2-VFT-D278A
T3 construct: followed by hTAS1R2-VFT (Ala22-Ser493) and another His6-tag at the C-terminus; His6 (thrombin-cleavable) (N); made in house
T3 sequence (Q8TE23 22-493 D278A): T2 sequence (Q8TE23 22-493) with D257A
Excerpt: To further confirm that the binding is specific, we performed mutagenesis studies on hTAS1R2-VFT. […] We performed ligand-binding titration assays in the same way as for hTAS1R2-VFT for the two point mutants.
Figure 5 Titration curves of hTAS1R2-VFT-D278A (blue triangles) and hTAS1R2-VFT (black circles) with sucralose (A) and aspartame (B). Circles and triangles show experimental data, while the solid lines are the computed binding curves. Wild-type receptor dose–responses are the same as for Figure 4. Data points correspond to the means ± SEMs of at least 12 independent replicates of at least three independently refolded protein samples.
All measurements were conducted at 20 °C using a Cary Eclipse spectrofluorimeter (Agilent Technologies, Santa Clara, CA, USA) equipped with a Peltier temperature control unit with a 5 nm bandwidth for emission and excitation. Ligand binding experiments with 0.5 µM hTAS1R2-VFTs were performed in buffer composed of 50 mM Tris-HCl pH 8, 150 mM NaCl, 0.5 mM DDM and 1 mM DTT. The intrinsic fluorescence of hTAS1R2-VFTs was measured at an excitation wavelength of 295 nm, and emission spectra were recorded from 320 to 380 nm. Fluorescence emission values were collected at 340 nm wavelength in the presence and absence of sweet ligands. […] Fluorescence measurements were corrected for bleaching, dilution and nonspecific buffer quenching. […]

[6] = biological target: human TAS1R3-VFT; set-up: method as in PMID 22450161; conditions: cited from earlier work
[7] = test system: full-length hTAS1R2/hTAS1R3 receptor E382A; set-up: method as in PMID 22536376; conditions: cellular assays; cited from earlier work
[8] = biological target: T1, human TAS1R2/TAS1R3 receptor; test: Cellular-based assay of the sweet taste receptor (EC50); type: cell-based
Excerpt: We determined its affinity constants for natural sugars using dose–response curves.

[9] = in water equivalent to 2% sucrose, ref Schiffman and Gatlin, 1993
[10] = Table 1, intrinsic fluorescence, 0.5 µM protein, 20 °C, pH 8, read-out: hTAS1R2-VFT (Kd)
[11] = in water equivalent to 5% sucrose, ref Shallenberger, 1993
[12] = in water equivalent to 2% sucrose, ref Bassoli et al., 2002

For `COC(=O)[C@H](Cc1ccccc1)NC(=O)[C@@H](N)CC(=O)O` [Aspartame] (H-Asp-Phe-OMe), the “Sweetness Potency” value [1, 9] is listed as 250 ^e, the EC50 ([2]; ref Masuda et al., 2012) is listed as 75 ± 11 µM and the “effect of D278A on the full-length receptor response” value [3] is listed as “decrease the response”. It also gave a Kd [4, 10] of 17.2 ± 3.1 µM and a Kd [5] of 223 ± 27.7 µM.

For `O=C1NS(=O)(=O)c2ccccc21` [Saccharin], the “Sweetness Potency” value [1, 9] is listed as 500 ^e.

For `OC[C@H]1O[C@@H](O[C@H]2[C@H](O)[C@@H](O)C(O)O[C@@H]2CO)[C@H](O)[C@@H](O)[C@H]1O` (mixture of isomers) [Lactose], the “Sweetness Potency” value [1, 11] is listed as 0.3 ^f and the Kd [4, 10] is listed as > 70000 µM.

For `OC[C@H]1OC(O)[C@H](O)[C@@H](O)[C@@H]1O` (some centres unmarked) [Glucose], the “Sweetness Potency” value [1, 11] is given as 0.6 ^f and the Kd [4, 10] is given as 1500 ± 300 µM.

In the case of `OC[C@H]1O[C@H](O[C@]2(CCl)O[C@H](CCl)[C@@H](O)[C@@H]2O)[C@H](O)[C@@H](O)[C@H]1Cl` [Sucralose], the “Sweetness Potency” value [1, 9] is listed as 600 ^e, the “binding affinity for human TAS1R3-VFT” value [6] is listed as “millimolar range” and the “effect of D278A on the full-length receptor response” value [3] is listed as “abolish the response”. For the same compound, the “effect of E382A on the full-length receptor response” value [7] was “reduces” and the Kd [4, 10] was 7 ± 1.3 µM.

In the case of `CC1=CC(=O)NS(=O)(=O)O1` [Acesulfame-K], the “Sweetness Potency” value [1, 9] is given as 200 ^e, the “effect of E382A on the full-length receptor response” value [7] is given as “abolishes” and the Kd [4, 10] is given as 0.9 ± 0.2 µM.

For `O=C(CO)[C@@H](O)[C@H](O)[C@H](O)CO` [Fructose], the “Sweetness Potency” value [1, 9] is listed as 0.7 ^e, the EC50 [8] is listed as 8 ± 4 mM and the Kd [4] is listed as 900 ± 200 µM.

For `C[C@@H](NC(=O)[C@@H](N)CC(=O)O)C(=O)NC1C(C)(C)SC1(C)C` [Alitame], the “Sweetness Potency” value [1, 9] is given as 4500 ^e, the EC50 ([2]; ref unpublished data obtained from collaborators) is given as 13.8 ± 0.3 µM and the Kd [4, 10] is given as 0.15 ± 0.03 µM.

For `COC(=O)[C@H](Cc1ccccc1)NC(=O)[C@H](CC(=O)O)NCCC(C)(C)C` [Neotame], the “Sweetness Potency” value [1, 12] is listed as 11,000 ^g and the Kd [4, 10] is listed as 0.09 ± 0.02 µM.

In the case of `OC[C@H]1O[C@@](CO)(O[C@H]2O[C@H](CO)[C@@H](O)[C@H](O)[C@H]2O)[C@@H](O)[C@@H]1O` [Sucrose], the “Sweetness Potency” value [1, 9] is given as 1 ^e, the EC50 ([8]; cellular assays, unpublished data from our laboratory, read-out: EC50) is given as 11 ± 3 mM and the Kd [4, 10] is given as 4200 ± 900 µM.

In the case of `O=S(=O)(O)NC1CCCCC1` [Cyclamate], the “Sweetness Potency” value [1, 9] is given as 26 ^e.

For `C=C(C)[C@@H]1CC=C(/C=N/O)CC1` [Perillartine], the “Sweetness Potency” value [1, 12] is listed as 1000 ^g and the EC50 ([2]; ref Belloir et al., 2021) is listed as 2.54 ± 0.48 µM.

— paper PMC9409066, “Functional Characterization of the Venus Flytrap Domain of the Human TAS1R2 Sweet Taste Receptor” (International Journal of Molecular Sciences, 2022)
